Where “and” joins values, the source holds several entries; their conditions need not be identical. Identical values can stand only once. Like-named read-outs stand apart in the source and are kept apart here.
Tests used:
Dopamine D1 receptor = Dopamine D1 receptor (Homo sapiens (Human), UniProt P21728); assay: Competitive binding, SCH-23390 radioligand
Method: (§1) R-55 (which comprises a 3-hydroxyphenyl moiety) and the structurally related compounds N-108 (2-{[4-(2-ethoxyphenyl)piperazin-1-yl]methyl}quinazolin-4(3H)-one) and B-39 (7-chloro-2-((5,6-dihydro-4-(2-methoxyphenyl)pyridin-1(2H)-yl)methyl)quinazolin-4(3H)-one) were assayed for competitive binding to a variety of receptors, including D4.4 type dopamine receptor, in order to assess their specificity for D4.4 dopamine receptors.
(§2) The receptors were expressed as human recombinant proteins in CHO cells, except for adrenergic α1 and α2 receptors which were expressed in Wistar rat brain and cerebral cortex cells, respectively, and melanocortin MC4 receptor which was expressed in human recombinant HEK-293 cells. Binding was determined using the following radioligands in the presence of various concentrations of the tested compound:
(§3) 1.4 nM and 2 nM SCH-23390, respectively, for dopamine D1 and D5 receptors,
(§4) The binding assays were performed in accordance with procedures described in the literature (Greengrass & Bremner, 1979; Boyajian & Leslie, 1987; Broadhurst, 1988; Lewis, 2001; Sutton, 1995; Dearry, 1990; Zhou, 1990; Grandy, 1989; Hayes, 1992; Sokoloff, 1990; Van Tol, 1991; Van Tol 1992; Sunahara, 1991; Weinshank, 1991; Schioth, 1996; Schioth 1997; Martin & Humphrey, 1994; May, 2003; Wolf & Schutz, 1997).

Dopamine D5 receptor = Dopamine D5 receptor (Homo sapiens (Human), UniProt P21918); assay: Competitive binding, SCH-23390 radioligand
Chain of Dopamine D5 receptor (P21918 whole entry): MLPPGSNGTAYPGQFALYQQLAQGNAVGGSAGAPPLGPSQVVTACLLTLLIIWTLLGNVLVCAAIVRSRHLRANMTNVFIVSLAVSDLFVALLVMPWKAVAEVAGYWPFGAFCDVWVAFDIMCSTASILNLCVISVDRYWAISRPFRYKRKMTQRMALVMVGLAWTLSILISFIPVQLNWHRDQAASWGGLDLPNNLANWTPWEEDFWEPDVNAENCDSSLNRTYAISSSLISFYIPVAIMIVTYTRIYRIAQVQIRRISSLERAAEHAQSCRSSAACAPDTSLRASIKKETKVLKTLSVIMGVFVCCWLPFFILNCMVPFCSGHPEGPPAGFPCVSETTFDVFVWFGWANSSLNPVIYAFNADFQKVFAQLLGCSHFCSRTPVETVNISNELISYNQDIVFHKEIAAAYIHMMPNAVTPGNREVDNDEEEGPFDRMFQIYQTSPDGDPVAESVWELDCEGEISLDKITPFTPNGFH
Method: as §1, §2, §3, §4

[1] = target: Melanocortin MC4 receptor (Homo sapiens (Human), UniProt P32245); assay: Competitive binding, NDP-α-MSH radioligand
Chain of Melanocortin MC4 receptor (P32245 whole entry): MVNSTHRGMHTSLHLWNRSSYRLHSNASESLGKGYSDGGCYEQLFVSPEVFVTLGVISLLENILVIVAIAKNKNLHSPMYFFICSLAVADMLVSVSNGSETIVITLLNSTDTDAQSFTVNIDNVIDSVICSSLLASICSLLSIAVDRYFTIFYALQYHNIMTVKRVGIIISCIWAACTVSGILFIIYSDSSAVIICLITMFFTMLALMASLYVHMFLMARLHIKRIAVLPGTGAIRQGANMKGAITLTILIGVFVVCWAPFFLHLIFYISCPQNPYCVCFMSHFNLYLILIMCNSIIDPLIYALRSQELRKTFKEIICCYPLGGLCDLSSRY
Method: as §1, §2
0.02 nM NDP-α-MSH for melanocortin MC4 receptor,
as §4

[2] = Pharmacokinetics of R-55 following intravenous administration in pigs; type: in vivo, White Landrace female pigs; conditions: 0.2 mg/kg intravenous
Method: R-55 and related compounds were assayed in the plasma samples using a Waters (USA) Alliance high performance liquid chromatograph coupled with a Waters Micromass ZQ quadruple mass spectrometer (in ESI+ mode) as a detector with Waters Empower chromatographic and mass spectrometric software for chromatographic data acquisition, processing and instrument control.
The tested compound was extracted from plasma using dichloromethane, followed by concentration by evaporating the extract and dissolution in a low volume chromatographic mobile phase.
The instrument was calibrated using plasma spiked with various concentrations of the tested compound. Enrofloxacin (m/z=360.4) was used as an internal standard.
In order to investigate the pharmacokinetics of R-55, the presence of R-55 in plasma was measured following intravenous administration of R-55 in pigs.
White Landrace female pigs were acclimatized for 2days prior to treatment. 3 pigs were administered 0.2 mg/kg R-55 by intravenous injection at a dose volume of 0.2 ml/kg. Blood samples were withdrawn from each pig via a jugular vein catheter at the following time points: immediately prior to injection (t=0), and 5 minutes, 10 minutes, 15 minutes, 30 minutes, 45 minutes, 60 minutes, 90 minutes, 2 hours, 3 hours, 4 hours, and 6 hours post-injection. All samples were collected in a K3EDTA tube (Greiner). Blood samples were stored on crushed ice after collection. Plasma was separated by centrifugation (10 minutes at 3000 rotations per minute), within two hours post-sampling. Each plasma sample was divided into two aliquots before freezing. Plasma samples were then stored at −20° C. until being dispatched for LCMS analysis.
Clinical observations were performed during the six hours following application.
Pharmacokinetic analysis was performed using the WINNONLIN version 5.0 (Pharsight, USA) computerized software. Area under curves of concentration vs. time (AUC) were calculated using the log linear trapezoidal rule. Area under curves were determined for the time period for which concentrations were measured, i.e., t=0 to 6 hours (AUCall), and for an infinite time period (AUCINF), as determined by extrapolation of the curve to t=∞.

[3] = target: Serotonin 5-HT2C receptor (Homo sapiens (Human), UniProt P28335); assay: Competitive binding, mesulergine radioligand
Chain of Serotonin 5-HT2C receptor (P28335 33-458): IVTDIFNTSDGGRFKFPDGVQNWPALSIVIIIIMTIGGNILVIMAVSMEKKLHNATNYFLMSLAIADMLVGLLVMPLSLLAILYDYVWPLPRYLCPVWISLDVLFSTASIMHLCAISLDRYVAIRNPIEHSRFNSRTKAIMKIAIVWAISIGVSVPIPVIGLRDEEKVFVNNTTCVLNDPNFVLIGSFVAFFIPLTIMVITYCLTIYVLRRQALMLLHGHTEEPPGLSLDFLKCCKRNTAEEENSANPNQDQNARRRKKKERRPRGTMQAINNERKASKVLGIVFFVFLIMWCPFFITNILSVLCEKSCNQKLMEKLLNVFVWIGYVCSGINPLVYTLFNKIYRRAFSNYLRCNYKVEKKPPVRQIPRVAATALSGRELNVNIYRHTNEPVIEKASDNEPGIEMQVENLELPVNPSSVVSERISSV
Method: as §1, §2
1 nM mesulergine for serotonin 5-HT2C receptor.
as §4

Chain of Dopamine D1 receptor (P21728 whole entry): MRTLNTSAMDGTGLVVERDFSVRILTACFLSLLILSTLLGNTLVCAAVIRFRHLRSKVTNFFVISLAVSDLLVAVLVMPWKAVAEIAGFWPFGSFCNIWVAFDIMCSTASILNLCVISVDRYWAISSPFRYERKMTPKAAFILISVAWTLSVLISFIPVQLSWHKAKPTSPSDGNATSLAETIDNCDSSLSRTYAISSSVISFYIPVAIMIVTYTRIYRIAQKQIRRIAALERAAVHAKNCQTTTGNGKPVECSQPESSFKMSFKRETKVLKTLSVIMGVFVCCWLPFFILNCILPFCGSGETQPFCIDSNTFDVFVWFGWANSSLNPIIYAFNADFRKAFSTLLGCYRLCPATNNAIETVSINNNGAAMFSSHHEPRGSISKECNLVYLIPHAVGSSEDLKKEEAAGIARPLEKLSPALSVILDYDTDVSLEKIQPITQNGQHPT

Competitive binding (%) at 5 μM of tested compound (Dopamine D1 receptor): −12% | Competitive binding (%) at 5 μM of tested compound (Dopamine D5 receptor): 0% | Competitive binding (%) at 5 μM of tested compound [1]: 3% | Time to elimination from the bloodstream after administration [2]: ≤ 30 min | R-55 plasma concentration ([2]; 0 minutes (immediately prior to injection), individual animals #1-#3): 0 ng/mL | R-55 plasma concentration ([2]; 5 minutes after injection, individual animals #1-#3): 122.1 ng/mL and 142.2 ng/mL | R-55 plasma concentration ([2]; 10 minutes after injection, individual animals #1-#3): 112.9 ng/mL and 83.0 ng/mL | R-55 plasma concentration ([2]; 15 minutes after injection, individual animals #1-#3): 30.4 ng/mL and 76.8 ng/mL and 52.8 ng/mL | R-55 plasma concentration ([2]; 30 minutes after injection, individual animals #1-#3): 0 ng/mL and 24.9 ng/mL and 22.3 ng/mL | R-55 detection in plasma ([2]; 45 minutes or more following administration): No R-55 was detected | Cmax - maximal concentration ([2]; individual animals): 122.1 ng/mL and 142.2 ng/mL | Mean residence time ([2]; individual animals): 17.0 min and 15.8 min | Volume of distribution ([2]; individual animals): 1.193 L/kg and 1.3081 L/kg | Volume of distribution at steady state ([2]; individual animals): 1.3589 L/kg and 1.5093 L/kg | concentration at 0 min ([2]; female, White Landrace, pig, plasma, iv, 0.2 mg/kg, 0 minutes (immediately prior to injection), individual animals #1-#3): 0 ng/mL | concentration at 5 min ([2]; female, White Landrace, pig, plasma, iv, 0.2 mg/kg, 5 minutes after injection, individual animals #1-#3): 158 ng/mL | concentration at 10 min ([2]; female, White Landrace, pig, plasma, iv, 0.2 mg/kg, 10 minutes after injection, individual animals #1-#3): 86.7 ng/mL | AUC(0-inf) ([2]; female, White Landrace, pig, plasma, iv, 0.2 mg/kg, extrapolation to infinite time, individual animals): 32.1 ng·h/mL | Clearance ([2]; female, White Landrace, pig, plasma, iv, 0.2 mg/kg, individual animals, read-out: Clearance): 104 mL/min/kg | Cmax ([2]; female, White Landrace, pig, plasma, iv, 0.2 mg/kg, individual animals, read-out: Cmax - maximal concentration): 158 ng/mL | MRT ([2]; female, White Landrace, pig, plasma, iv, 0.2 mg/kg, individual animals, read-out: Mean residence time (converted)): 14.5 min | half-life ([2]; female, White Landrace, pig, plasma, iv, 0.2 mg/kg, individual animals, read-out: T1/2 - half-life): 9 to 10 min | Vd ([2]; female, White Landrace, pig, plasma, iv, 0.2 mg/kg, individual animals, read-out: Volume of distribution): 1.3 L/kg | Vd ([2]; female, White Landrace, pig, plasma, iv, 0.2 mg/kg, individual animals, read-out: Volume of distribution at steady state): 1.51 L/kg | AUC ([2]; female, White Landrace, pig, plasma, iv, 0.2 mg/kg, t=0 to 6 hours, individual animals): 27.9 ng·h/mL | Competitive binding (%) at 5 μM of tested compound [3]: 5%
SMILES: O=c1[nH]c(CN2CCN(c3cccc(O)c3)CC2)nc2ccccc12 [Compound R-55, 2-((4-(3-hydroxyphenyl)piperazin-1-yl)methyl)quinazolin-4-one]
AUCINF ([2]; extrapolation to infinite time, individual animals): 2501.3 ng·min/mL and 2132.2 ng·min/mL | Clearance ([2]; individual animals): 80.0 mL/min/kg and 93.8 mL/min/kg | T1/2 - half-life ([2]; individual animals): 8.67 min and 10.34 min and 9.67 min | Clinical observations (side effects) ([2]; six hours following application): No abnormal side effects were observed | AUCall ([2]; t=0 to 6 hours, individual animals): 2129.0 ng·min/mL and 1821.3 ng·min/mL

— patent US9353067B2, “Heterocyclic compounds and uses thereof in the treatment of sexual disorders” (ATIR Holding S.A., priority 2011, dated 2016)
